From article PMC8197367, “Comparative Antimicrobial Activity of Hp404 Peptide and Its Analogs against Acinetobacter baumannii” (International Journal of Molecular Sciences, 2021)
Where no end group is shown, it is not given here.

Legend:
[1] = system: L. monocytogenes KCTC 3710; assay: MIC, broth microdilution; type: cell-based, Listeria monocytogenes; details: two-fold broth microdilution, BHI, 2 × 10^5 CFU/mL, 37 °C, 18 h, read at 600 nm, three independent experiments
Experimental: (§1) The experiment was performed in triplicate.

HaCaT cells = details: 50 μM peptide, 24 h, MTT assay
Experimental: The cytotoxicity of the peptides against mammalian cells was calculated using the MTT assay. Human keratinocyte HaCaT cells were incubated in Dulbecco’s modified Eagle’s medium (DMEM) supplemented with 10% fetal bovine serum and 1% penicillin at 37 °C with 5% CO2. HaCaT cells were added at 2 × 10^5 cells/mL to DMEM supplemented with 10% fetal bovine serum and placed in 96-well plates. The plates were incubated overnight at 37 °C in a CO2 incubator. Peptides were serially diluted two-fold in DMEM, added to the cell cultures and incubated for 24 h at 37 °C. MTT solution (5 mg/mL) was added to each well and incubated for 1 h at 37 °C. The media was discarded, and the formazan crystals were dissolved in 100 μL dimethyl sulfoxide. The absorbance was measured using a Versa-Max microplate ELISA reader (Molecular Devices, Sunnyvale, CA, USA) at 570 and 650 nm. As a […], 0.1% Triton X-100 was used.

A. baumannii KCTC 2508 [2] = assay: MIC, broth microdilution; type: cell-based, Acinetobacter baumannii; details: two-fold broth microdilution, NB, 2 × 10^5 CFU/mL, 37 °C, 18 h, read at 600 nm, no added salt, three independent experiments
Experimental: as §1

mouse red blood cells = assay: Hemolytic assay; type: cell-based; details: 50 μM peptide (highest tested concentration); 8% mouse red blood cells in PBS, 1 h, 37 °C, absorbance 414 nm, vs 0.1% Triton X-100
Experimental: The hemolytic activity of the peptides against mouse erythrocytes was determined using red blood cells. Fresh mouse red blood cells were washed three times and resuspended in PBS to attain an 8% dilution. Peptides were serially diluted to a final concentration of 50 μM. Next, 100 µL peptide solution was added to 100 μL of mouse red blood cells, wrapped with aluminum foil and incubated for 1 h at 37 °C. The mixture was then centrifuged at 1500× g for 10 min. The supernatant was transferred into a new 96-well plate, and the absorbance of the supernatant was measured at 414 nm. As positive and negative controls, […] in mouse red blood cells were used. Hemolysis was evaluated according to the following equation:
Hemolysis (%) = [(Abs414 nm in the peptide solution − Abs414 nm in PBS)/(Abs414 nm in 0.1% Triton X-100 − Abs414 nm in PBS)] × 100.

Calcein leakage assay [3] = details: PC:CH:SM (1:1:1, w/w) LUVs (10 μM) loaded with calcein; excitation 480 nm, emission 520 nm; various peptide concentrations
Experimental: (§4) Peptide-induced membrane permeability was monitored be measuring calcein dye emission in calcein-loaded LUVs [49]. We prepared the lipid mixture, and PC:CH (2:1, w/w) and PC:CH:SM liposomes (1:1:1, w/w) were prepared with 70 mM calcein buffer. A Sephadex G-50 column was used to separate calcein-loaded liposomes from free calcein dye. The LUVs (10 μM) were mixed with various concentrations of the peptide on a 96-well black plate. The fluorescence intensity was measured at excitation and emission wavelengths of 480 and 520 nm, respectively.

Calcein leakage assay [4] = details: PC:CH LUVs (10 μM) loaded with calcein; excitation 480 nm, emission 520 nm; various peptide concentrations
Experimental: as §4

B. cereus KCTC 1012 = assay: MIC, broth microdilution; type: cell-based, Bacillus cereus; details: two-fold broth microdilution, TSB, 2 × 10^5 CFU/mL, 37 °C, 18 h, read at 600 nm, three independent experiments
Experimental: as §1

K. pneumoniae KCTC 2208 = assay: MIC, broth microdilution; type: cell-based; details: two-fold broth microdilution, NB, 2 × 10^5 CFU/mL, 37 °C, 18 h, read at 600 nm, three independent experiments
Experimental: as §1

P. aeruginosa ATCC 27853 = assay: MIC, broth microdilution; type: cell-based; details: two-fold broth microdilution, NB, 2 × 10^5 CFU/mL, 37 °C, 18 h, read at 600 nm, three independent experiments
Experimental: as §1

S. aureus ATCC 29213 = assay: MIC, broth microdilution; type: cell-based, Staphylococcus aureus; details: two-fold broth microdilution, TSB, 2 × 10^5 CFU/mL, 37 °C, 18 h, read at 600 nm, three independent experiments
Experimental: as §1

S. aureus ATCC 25923 = assay: MIC, broth microdilution; type: cell-based, Staphylococcus aureus; details: two-fold broth microdilution, TSB, 2 × 10^5 CFU/mL, 37 °C, 18 h, read at 600 nm, three independent experiments
Experimental: as §1

[5] = calcein-loaded LUVs, Figure 4c
Experimental: Peptide-induced membrane permeability was monitored be measuring calcein dye emission in calcein-loaded LUVs. We prepared the lipid mixture, and PC:CH (2:1, w/w) and PC:CH:SM liposomes (1:1:1, w/w) were prepared with 70 mM calcein buffer. A Sephadex G-50 column was used to separate calcein-loaded liposomes from free calcein dye. The LUVs (10 μM) were mixed with various concentrations of the peptide on a 96-well black plate. The fluorescence intensity was measured at excitation and emission wavelengths of 480 and 520 nm, respectively.

E. coli ATCC 25922 = assay: MIC, broth microdilution; type: cell-based, Escherichia coli; details: two-fold broth microdilution, LB, 2 × 10^5 CFU/mL, 37 °C, 18 h, read at 600 nm, three independent experiments
Experimental: as §1

[6] = system: S. typhimurium ATCC 14028; assay: MIC, broth microdilution; type: cell-based, Salmonella typhimurium; details: two-fold broth microdilution, NB, 2 × 10^5 CFU/mL, 37 °C, 18 h, read at 600 nm, three independent experiments
Experimental: as §1

A. baumannii 719705 = assay: microbe, parasite or virus in culture; details: A. baumannii 719705 isolated from patient; broth microdilution, 37 °C, 18 h; three independent experiments
Source text: (§2) Staphylococcus aureus ATCC 25923, S. aureus ATCC 29213, P. aeruginosa ATCC 27853, Escherichia coli ATCC 25922 and Salmonella typhimurium ATCC 14028 strains were obtained from the American Type Culture Collection (ATCC, Manassas, VA, USA). Listeria monocytogenes KCTC 3710, Bacillus cereus KCTC 1012, K. pneumoniae KCTC 2208 and A. baumannii KCTC 2508 were obtained from the Korean Collection for Type Cultures (KRIBB, Daejeon, South Korea). Clinical isolates of A. baumannii strains were collected from Eulji University Hospital (Seoul, South Korea).
(§3) Hp1404 and its analog peptides activity against both gram-positive and gram-negative bacterial strains were tested using the broth microdilution method. Briefly, S. aureus (ATCC 25923, ATCC 29213) and B. cereus KCTC 1012 were cultured overnight at 37 °C in tryptic soy broth (TSB). P. aeruginosa ATCC 27853, K. pneumoniae KCTC 2208, A. baumannii KCTC 2508 and S. typhimurium ATCC 14028 were cultured overnight at 37 °C in nutrient broth (NB). E. coli ATCC 25922 was cultured overnight at 37 °C in luria bertani (LB). L. monocytogenes KCTC 3710 was cultured overnight at 37 °C in brain heart infusion (BHI). The cultures were diluted with fresh medium at a density of 2 × 10^5 CFU/mL. Peptides were serially diluted in sodium phosphate buffer (pH 7.2) to a final concentration of 25 μM. In a 96-well plate, 50-μL bacterial aliquots were mixed with 50 μL peptide solution. After incubation at 37 °C for 18 h, the MIC was determined using a plate reader at 600 nm. The experiment was performed in triplicate.

A. baumannii #3 = assay: microbe, parasite or virus in culture; details: A. baumannii #3 isolated from patient; broth microdilution, 37 °C, 18 h; three independent experiments
Source text: as §2, §3

A. baumannii #4 = assay: microbe, parasite or virus in culture; details: A. baumannii #4 isolated from patient; broth microdilution, 37 °C, 18 h; three independent experiments
Source text: as §2, §3

A. baumannii #2 = assay: microbe, parasite or virus in culture; details: A. baumannii #2 isolated from patient; broth microdilution, 37 °C, 18 h; three independent experiments
Source text: as §2, §3

A. baumannii 907233 = assay: microbe, parasite or virus in culture; details: A. baumannii 907233 isolated from patient; broth microdilution, 37 °C, 18 h; three independent experiments
Source text: as §2, §3

A. baumannii 409081 = assay: microbe, parasite or virus in culture; details: A. baumannii 409081 isolated from patient; broth microdilution, 37 °C, 18 h; three independent experiments
Source text: as §2, §3

A. baumannii KCTC 2508 [7] = details: NB supplemented with 150 mM NaCl, triplicate
Experimental: as §3
To determine whether antibacterial activity was affected by the presence of salts, experiments were conducted as previously reported. We determined the MICs of NB supplemented with 150 mM NaCl. MIC assays were performed as described above. The assay was performed in triplicate.

Substance | MIC [1] [µM] | Cell viability (HaCaT cells) [%] | MIC (A. baumannii KCTC 2508 [2]) [µM] | hemolytic activity (mouse red blood cells) | MIC (B. cereus KCTC 1012) [µM] | MIC (K. pneumoniae KCTC 2208) [µM] | MIC (P. aeruginosa ATCC 27853) [µM] | MIC (S. aureus ATCC 29213) [µM] | MIC (S. aureus ATCC 25923) [µM] | MIC (E. coli ATCC 25922) [µM] | MIC [6] [µM] | MIC (A. baumannii 719705) [µM] | MIC (A. baumannii #3) [µM] | MIC (A. baumannii #4) [µM] | MIC (A. baumannii #2) [µM] | MIC (A. baumannii 907233) [µM] | MIC (A. baumannii 409081) [µM] | MIC in the presence of 150 mM NaCl (A. baumannii KCTC 2508 [7]) [µM] | other results
GILGKLWEGVKSIA-NH2 [Hp1404-A] | >25 | 100 | 25 | no hemolytic activity | >25 | >25 | >25 | >25 | 12.5 | >25 | 25 | – | – | – | – | – | – | – | calcein release (fluorescence intensity) (Calcein leakage assay [3]): did not release calcein; calcein release (fluorescence intensity) (Calcein leakage assay [4]): did not release calcein; calcein leakage fluorescence (bioimaging) [5]: no fluorescence was observed
GILGKLWEGVKSIF-NH2 [Hp1404, reference compound] | 3.13 | 72.3 | 3.13 | 49.2% | 12.5 | 12.5 | 12.5 | 6.25 | 3.13 | 12.5 | 3.13 | 3.13 | 3.13 | 3.13 | 3.13 | 3.13 | 3.13 | 6.25 | –
GILGKLWEGVKSII-NH2 [Hp1404-I] | 6.25 | 100 | 3.13 | – | 25 | 25 | 25 | 12.5 | 3.13 | 12.5 | 3.13 | 6.25 | 3.13 | 3.13 | 3.13 | 3.13 | 3.13 | 12.5 | –
GILGKLWEGVKSIK-NH2 [Hp1404-K] | >25 | – | 25 | no hemolytic activity | >25 | >25 | >25 | >25 | 25 | >25 | 12.5 | – | – | – | – | – | – | – | calcein release (fluorescence intensity) (Calcein leakage assay [3]): did not release calcein; calcein release (fluorescence intensity) (Calcein leakage assay [4]): did not release calcein; calcein leakage fluorescence (bioimaging) [5]: no fluorescence was observed
GILGKLWEGVKSIL-NH2 [Hp1404-L] | 3.13 | 62.4 | 3.13 | 45.8% | 12.5 | 12.5 | 12.5 | 6.25 | 1.56 | 12.5 | 1.56 | 3.13 | 3.13 | 3.13 | 3.13 | 3.13 | 3.13 | 6.25 | –
GILGKLWEGVKSIV-NH2 [Hp1404-V] | 25 | 100 | 6.25 | no hemolytic activity | 25 | >25 | >25 | 25 | 6.25 | 25 | 6.25 | 12.5 | 6.25 | 6.25 | 6.25 | 6.25 | 6.25 | 25 | –
GILGKLWEGVKSIW-NH2 [Hp1404-W] | 6.25 | 100 | 3.13 | 15.9% | 25 | 12.5 | 25 | 12.5 | 3.13 | 12.5 | 3.13 | 3.13 | 3.13 | 3.13 | 3.13 | 3.13 | 3.13 | 6.25 | –
